# Test results from patent publication US20060229433A1, “Modified antiviral peptides with increased activity and cell membrane affinity” (priority 2003, published 2006).
# Values joined by “and” are separate entries in the source; they are usually repeats but may differ in a detail not shown here. Equal entries are not always repeated. Square brackets hold non-standard residues; d marks the D form. Peptide text beside a SMILES is read from it. Ava = NCCCCC(=O)O
# Columns and labels:
# Type in all cases: cell-based
# [1] = system: HIV-1 NL 4-3; test: HIV-1 infection of C8166 cells (syncytia formation, p24 ELISA) with HIV-1 NL 4-3; set-up: key to syncitia formed, Day 4 / syncitia formed, Day 5 / syncitia formed, Day 6 / syncitia formed, Day 7: ++, +, (+), (+)− and − represent decreasing numbers of syncitia formed; ++, +, (+), (+)− and − represent decreasing numbers of syncitia formed; ++, +, (+), (+)− and − represent decreasing numbers of syncitia formed; ++, +, (+), (+)− and − represent decreasing numbers of syncitia formed; ++, +, (+), (+)− and − represent decreasing numbers of syncitia formed
# Summary of the method: (§1)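 C8166 T-cells were preincubated with peptide for 1 h at 37 °C, then exposed for 1 h to HIV-1 at 1000 TCID50/ml, washed, and cultured with peptide kept present throughout, with medium replaced at day 4. Infection was scored by syncytia formation and by supernatant p24 ELISA, with at least two runs in duplicate.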
# [2] = system: HIV-1 NDK; test: HIV-1 infection of C8166 cells (syncytia formation, p24 ELISA) with HIV-1 NDK; set-up: key to syncitia formed, Day 4 / syncitia formed, Day 5 / syncitia formed, Day 6 / syncitia formed, Day 7: ++, +, (+), (+)− and − represent decreasing numbers of syncitia formed; ++, +, (+), (+)− and − represent decreasing numbers of syncitia formed; ++, +, (+), (+)− and − represent decreasing numbers of syncitia formed; ++, +, (+), (+)− and − represent decreasing numbers of syncitia formed; ++, +, (+), (+)− and − represent decreasing numbers of syncitia formed; conditions: for P 24: P 24 after Day 7
# Protocol: HIV-1 NL 4-3 isolate (Adachi et al., 1986; Barré-Sinoussi et al., 1983) and highly cytopathic Zairian HIV-1 NDK isolate (Ellrodt et al., 1984) was propagated in permissive CEM cells (Nara et al., 1987). Uninfected CEM and C8166 (Salahuddin et al., 1983) were maintained in RPMI 1640 (R10) with ultraglutamine (cambrex, Vervier, Belgium), penicillin (100 U/ml), streptomycin (100 μg/ml), and 10% heat-inactivated fetal calf serum (Cambrex).
# Samples of 3×10^5/100 μL C8166 cells were preincubated in 96-well microtiter plates in culture medium containing various concentrations of peptide. After a 1 h treatment at 37° C., 100 μl of diluted viral solution of HIV-1 was added. The cells were exposed to the virus for 1 h at 37° C. at a multiplicity of infection of 1000 TCID50 per ml. The cells were washed three times and cultured at 3×10^5/ml of R10 with the treatment in 24-well plates incubated at 37° C. C8166 culture medium was replaced at Day-4 post-infection. The treatment was permanent before virus adsorption, during virus adsorption and after infection. Assays on C8166 cells have been performed at least twice and in duplicate. Toxicity was evaluated by daily cell count and trypan-blue exclusion assay. Infection of C8166 T-cells with HIV-1 was assessed by virus-induced cytopathic effects (syncytia formation) and by quantification of cell free p24 viral protein in the culture supernatants. Measurements of HIV-1 p24^gag concentration in the culture supernatants were achieved by ELISA (ALLIANCE® HIV-1 p24 kit, Perkin Elmer, life sciences, USA).
# [3] = system: HIV-1 NL 4-3; test: HIV-1 infection of C8166 cells (syncytia formation, p24 ELISA) with HIV-1 NL 4-3; set-up: key: ++, +, (+), (+)− and − represent decreasing numbers of syncitia formed; ++, +, (+), (+)− and − represent decreasing numbers of syncitia formed; ++, +, (+), (+)− and − represent decreasing numbers of syncitia formed; ++, +, (+), (+)− and − represent decreasing numbers of syncitia formed; ++, +, (+), (+)− and − represent decreasing numbers of syncitia formed; conditions: Table 6
# Summary of the method: as §1
structure (smiles),measurement,setting,value
"N=C(N)NCCC[C@H](NC(=O)CNC(=O)[C@@H]1CCCN1C(=O)CN)C(=O)NCCCCC(=O)O [GPGR valeric acid, GPGR-NHCH2CH2CH2CH2COOH] (H-GPGR[Ava]-OH; N-terminus assumed)","syncitia formed, Day 4","[1]; 0.01 μM, C8166 cells",−
same,"syncitia formed, Day 5","[1]; 0.01 μM, C8166 cells",+
same,"syncitia formed, Day 6","[1]; 0.01 μM, C8166 cells",++
same,"syncitia formed, Day 7","[1]; 0.01 μM, Day 7, C8166 cells",++/T and ++
same,"syncitia formed, Day 4","[1]; 0.05 μM, C8166 cells",−
same,"syncitia formed, Day 5","[1]; 0.05 μM, C8166 cells",(+)
same,"syncitia formed, Day 6","[1]; 0.05 μM, C8166 cells",+
same,"syncitia formed, Day 7","[1]; 0.05 μM, Day 7, C8166 cells",++
same,P 24,"[1]; 0.05 μM, P 24 after Day 7, C8166 cells",9860 pg/mL and 17800 pg/mL
same,"syncitia formed, Day 4","[1]; 0.1 μM, C8166 cells",−
same,"syncitia formed, Day 5","[1]; 0.1 μM, C8166 cells",(+)
same,"syncitia formed, Day 6","[1]; 0.1 μM, C8166 cells",+
same,"syncitia formed, Day 7","[1]; 0.1 μM, Day 7, C8166 cells",+
same,"syncitia formed, Day 4","[1]; 0.5 μM, C8166 cells",−
same,"syncitia formed, Day 5","[1]; 0.5 μM, C8166 cells",−
same,"syncitia formed, Day 6","[1]; 0.5 μM, C8166 cells",−
same,"syncitia formed, Day 7","[1]; 0.5 μM, Day 7, C8166 cells",+
same,P 24,"[1]; 0.5 μM, P 24 after Day 7, C8166 cells",2740 pg/mL and 2840 pg/mL
same,"syncitia formed, Day 4","[1]; 1 μM, C8166 cells",−
same,"syncitia formed, Day 5","[1]; 1 μM, C8166 cells",−
same,"syncitia formed, Day 6","[1]; 1 μM, C8166 cells",−
same,"syncitia formed, Day 7","[1]; 1 μM, Day 7, C8166 cells",−
same,P 24,"[1]; 1 μM, P 24 after Day 7, C8166 cells",53 pg/mL and 64 pg/mL
same,"syncitia formed, Day 4","[1]; 5 μM, C8166 cells",−
same,"syncitia formed, Day 5","[1]; 5 μM, C8166 cells",−
same,"syncitia formed, Day 6","[1]; 5 μM, C8166 cells",−
same,"syncitia formed, Day 7","[1]; 5 μM, Day 7, C8166 cells",−
same,P 24,"[1]; 5 μM, P 24 after Day 7, C8166 cells",2 pg/mL
same,P 24,"[1]; Day 7, 0.005 μM, Table 6",23810 pg/mL
same,P 24,"[1]; Day 7, 0.01 μM, Table 6",21800 pg/mL and 23810 pg/mL
same,P 24,"[1]; Day 7, 0.05 μM, Table 6",9840 pg/mL and 11830 pg/mL
same,P 24,"[1]; Day 7, 0.1 μM, Table 6",433 pg/mL and 507 pg/mL
same,P 24,"[1]; Day 7, 1 μM, Table 6",104 pg/mL and 179 pg/mL
same,P 24,"[1]; Day 7, 5 μM, Table 6",2.36 pg/mL and 2.4 pg/mL
same,"syncitia formed, Day 4",[2]; 0.005 μM,(+)
same,"syncitia formed, Day 5",[2]; 0.005 μM,+
same,"syncitia formed, Day 6",[2]; 0.005 μM,++
same,"syncitia formed, Day 7",[2]; 0.005 μM,++
same,P 24,[2]; 0.005 μM,23810 pg/mL
same,"syncitia formed, Day 4",[2]; 0.01 μM,(+)
same,"syncitia formed, Day 5",[2]; 0.01 μM,+
same,"syncitia formed, Day 6",[2]; 0.01 μM,++
same,"syncitia formed, Day 7",[2]; 0.01 μM,++
same,P 24,[2]; 0.01 μM,23810 pg/mL
same,"syncitia formed, Day 4",[2]; 0.05 μM,−
same,"syncitia formed, Day 5",[2]; 0.05 μM,(+)
same,"syncitia formed, Day 6",[2]; 0.05 μM,++
same,"syncitia formed, Day 7",[2]; 0.05 μM,++
same,P 24,[2]; 0.05 μM,23810 pg/mL
same,"syncitia formed, Day 4",[2]; 0.1 μM,−
same,"syncitia formed, Day 5",[2]; 0.1 μM,(+)
same,"syncitia formed, Day 6",[2]; 0.1 μM,++
same,"syncitia formed, Day 7",[2]; 0.1 μM,++
same,P 24,[2]; 0.1 μM,17890 pg/mL and 23810 pg/mL
same,"syncitia formed, Day 4",[2]; 0.5 μM,−
same,"syncitia formed, Day 5",[2]; 0.5 μM,−
same,"syncitia formed, Day 6",[2]; 0.5 μM,+
same,"syncitia formed, Day 7",[2]; 0.5 μM,++
same,"syncitia formed, Day 4",[2]; 1 μM,−
same,"syncitia formed, Day 5",[2]; 1 μM,−
same,"syncitia formed, Day 6",[2]; 1 μM,+
same,"syncitia formed, Day 7",[2]; 1 μM,++
same,P 24,[2]; 1 μM,2840 pg/mL and 3810 pg/mL
same,"syncitia formed, Day 4",[2]; 5 μM,−
same,"syncitia formed, Day 5",[2]; 5 μM,−
same,"syncitia formed, Day 6",[2]; 5 μM,(+)
same,"syncitia formed, Day 7",[2]; 5 μM,+
same,P 24,[2]; 5 μM,3810 pg/mL
same,IC50,"[2]; HIV 1 NDK, Table 10",300 nM
same,IC100,"[2]; HIV 1 NDK, Table 10",>5 µM
same,Day 4 syncitia formed,[3]; 0.005 μM,−
same,Day 5 syncitia formed,[3]; 0.005 μM,+
same,Day 6 syncitia formed,[3]; 0.005 μM,++
same,Day 7 syncitia formed,[3]; 0.005 μM,++
same,Day 4 syncitia formed,[3]; 0.01 μM,−
same,Day 5 syncitia formed,[3]; 0.01 μM,+
same,Day 6 syncitia formed,[3]; 0.01 μM,++
same,Day 7 syncitia formed,[3]; 0.01 μM,++
same,Day 4 syncitia formed,[3]; 0.05 μM,−
same,Day 5 syncitia formed,[3]; 0.05 μM,(+)
same,Day 6 syncitia formed,[3]; 0.05 μM,+
same,Day 7 syncitia formed,[3]; 0.05 μM,++
same,Day 4 syncitia formed,[3]; 0.1 μM,−
same,Day 5 syncitia formed,[3]; 0.1 μM,(+)
same,Day 6 syncitia formed,[3]; 0.1 μM,+
same,Day 7 syncitia formed,[3]; 0.1 μM,+
same,Day 4 syncitia formed,[3]; 0.5 μM,−
same,Day 5 syncitia formed,[3]; 0.5 μM,−
same,Day 6 syncitia formed,[3]; 0.5 μM,−
same,Day 7 syncitia formed,[3]; 0.5 μM,+
same,Day 4 syncitia formed,[3]; 1 μM,−
same,Day 5 syncitia formed,[3]; 1 μM,−
same,Day 6 syncitia formed,[3]; 1 μM,−
same,Day 7 syncitia formed,[3]; 1 μM,+
same,Day 4 syncitia formed,[3]; 5 μM,−
same,Day 5 syncitia formed,[3]; 5 μM,−
same,Day 6 syncitia formed,[3]; 5 μM,−
same,Day 7 syncitia formed,[3]; 5 μM,−
